Data: ChEMBL document CHEMBL4014287, “Jesridonin in combination with paclitaxel demonstrates synergistic anti-tumor activity in human esophageal carcinoma cells” (Bioorg Med Chem Lett, 2017)
Active and inactive are the calls of the source. No cut-off for these calls is given here.

Columns and labels:
[1] = tested on: ECa-109 cell line; assay: Induction of apoptosis in human EC109 cells assessed as nuclear condensation at 15 uM in presence of 5 nM paclitaxel after 24 hrs by Hochest 33258 staining based fluorescent microscopic analysis; assay type: functional, cell-based
[2] = tested on: ECa-109 cell line; assay: Induction of apoptosis in human EC109 cells assessed as decrease in Bcl-2 level at 15 uM in presence of 5 nM paclitaxel by Western blot method; assay type: functional, cell-based
[3] = tested on: ECa-109 cell line; assay: Cytotoxicity against human EC109 cells assessed as combination index at 10 uM in presence of 5 nM paclitaxel; assay type: functional
[4] = tested on: ECa-109 cell line; assay: Induction of apoptosis in human EC109 cells assessed as early apoptotic cells at 15 uM after 24 hrs by Annexin V-FITC/propidium iodide staining based flow cytometry (reference value: 1.3%); assay type: functional
[5] = tested on: Mus musculus; assay: Toxicity in nude mouse xenografted with human EC109 cells assessed as effect on spleen at 10 mg/kg in presence of paclitaxel measured after 21 days by histopathological analysis; assay type: organism-based; conditions: in vivo, 504 h
[6] = tested on: ECa-109 cell line; assay: Induction of apoptosis in human EC109 cells assessed as increase in Bak level at 15 uM in presence of 5 nM paclitaxel by Western blot method; assay type: functional, cell-based
[7] = tested on: ECa-109 cell line; assay: Induction of apoptosis in human EC109 cells assessed as necrotic cells at 15 uM after 24 hrs in presence of paclitaxel by Annexin V-FITC/propidium iodide staining based flow cytometry (reference value: 1.6 %); assay type: functional
[8] = tested on: ECa-109 cell line; assay: Cytotoxicity against human EC109 cells assessed as reduction in cell viability after 24 hrs by MTT assay; assay type: functional, cell-based
[9] = tested on: ECa-109 cell line; assay: Cytotoxicity against human EC109 cells assessed as combination index at 15 uM in presence of 10 nM paclitaxel; assay type: functional
[10] = tested on: ECa-109 cell line; assay: Antitumor activity against human EC109 cells xenografted in nude mouse assessed as tumor growth inhibition at 10 mg/kg in presence of 5 mg/kg paclitaxel measured after 21 days relative to control; assay type: functional
[11] = tested on: ECa-109 cell line; assay: Antitumor activity against human EC109 cells xenografted in nude mouse assessed as reduction in tumor size at 10 mg/kg in presence of 5 mg/kg paclitaxel measured after 21 days; assay type: functional, organism-based
[12] = tested on: ECa-109 cell line; assay: Induction of apoptosis in human EC109 cells assessed as decrease in pro-caspase 3 expression at 15 uM in presence of 5 nM paclitaxel by Western blot method; assay type: functional, cell-based
[13] = tested on: ECa-109 cell line; assay: Cytotoxicity against human EC109 cells assessed as combination index at 5 uM in presence of 5 nM paclitaxel; assay type: functional
[14] = tested on: Mus musculus; assay: Toxicity in nude mouse xenografted with human EC109 cells assessed as pathological changes at 10 mg/kg measured after 21 days; assay type: organism-based; conditions: in vivo, 504 h
[15] = tested on: ECa-109 cell line; assay: Induction of apoptosis in human EC109 cells assessed as necrotic cells at 15 uM after 24 hrs by Annexin V-FITC/propidium iodide staining based flow cytometry (reference value: 1.6 %); assay type: functional
[16] = tested on: Mus musculus; assay: Hepatotoxicity in nude mouse xenografted with human EC109 cells assessed as change in serum AST level at 10 mg/kg in presence of paclitaxel measured after 21 days; assay type: toxicity, organism-based; conditions: in vivo, 504 h
[17] = tested on: Mus musculus; assay: Hepatotoxicity in nude mouse xenografted with human EC109 cells assessed as change in serum total protein level at 10 mg/kg in presence of paclitaxel measured after 21 days; assay type: toxicity, organism-based; conditions: in vivo, 504 h
[18] = tested on: ECa-109 cell line; assay: Induction of apoptosis in human EC109 cells assessed as increase in Bid level at 15 uM in presence of 5 nM paclitaxel by Western blot method; assay type: functional, cell-based
[19] = tested on: ECa-109 cell line; assay: Antitumor activity against human EC109 cells xenografted in nude mouse assessed as induction of necrosis at 10 mg/kg in presence of paclitaxel measured after 21 days by H and E staining based assay; assay type: functional, organism-based
[20] = tested on: ECa-109 cell line; assay: Induction of apoptosis in human EC109 cells assessed as nuclear shrinkage at 15 uM in presence of 5 nM paclitaxel after 24 hrs by Hochest 33258 staining based fluorescent microscopic analysis; assay type: functional, cell-based
[21] = tested on: ECa-109 cell line; assay: Cytotoxicity against human EC109 cells assessed as combination index at 10 uM in presence of 10 nM paclitaxel; assay type: functional
[22] = tested on: ECa-109 cell line; assay: Induction of apoptosis in human EC109 cells assessed as early apoptotic cells at 15 uM after 24 hrs in presence of paclitaxel by Annexin V-FITC/propidium iodide staining based flow cytometry (reference value: 1.3%); assay type: functional
[23] = tested on: Mus musculus; assay: Nephrotoxicity in nude mouse xenografted with human EC109 cells at 10 mg/kg in presence of paclitaxel measured after 21 days by histopathological analysis; assay type: toxicity, organism-based; conditions: in vivo, 504 h
[24] = tested on: ECa-109 cell line; assay: Induction of apoptosis in human EC109 cells assessed as increase in Bax level at 15 uM in presence of 5 nM paclitaxel by Western blot method; assay type: functional, cell-based
[25] = tested on: ECa-109 cell line; assay: Cytotoxicity against human EC109 cells assessed as combination index at 5 uM in presence of 10 nM paclitaxel; assay type: functional
[26] = tested on: ECa-109 cell line; assay: Induction of apoptosis in human EC109 cells assessed as increase in PUMA level at 15 uM in presence of 5 nM paclitaxel by Western blot method; assay type: functional, cell-based
[27] = tested on: Mus musculus; assay: Hepatotoxicity in nude mouse xenografted with human EC109 cells at 10 mg/kg in presence of paclitaxel measured after 21 days by histopathological analysis; assay type: toxicity, organism-based; conditions: in vivo, 504 h
[28] = tested on: ECa-109 cell line; assay: Induction of apoptosis in human EC109 cells assessed as decrease in Mcl-1 level at 15 uM in presence of 5 nM paclitaxel by Western blot method; assay type: functional, cell-based
[29] = tested on: Mus musculus; assay: Cardiotoxicity in nude mouse xenografted with human EC109 cells at 10 mg/kg in presence of paclitaxel measured after 21 days by histopathological analysis; assay type: toxicity, organism-based; conditions: in vivo, 504 h

SMILES: C=C1C(=O)[C@@]23[C@@H]4OC(c5ccc(Cl)cc5)O[C@@]25OC[C@@]2([C@H]([C@@H]5O)C(C)(C)CC[C@@H]2O)[C@@H]3CC[C@@H]14 (some centres undefined)
- Activity [1]: Active
- Activity [2]: Active
- CI [3]: 0.43
- Activity [4]: 20.2%
- Activity [5]: Non-Toxic
- Activity [6]: Active
- Activity [7]: 1.5%
- Activity [8]: Dose-dependent effect
- CI [9]: 0.68
- TGI [10]: 77.21%
- Activity [11]: Active
- Activity [12]: Active
- CI [13]: 0.75
- Activity [14]: Non-Toxic
- Activity [15]: 1.3%
- Activity [16]: Non-Toxic
- Activity [17]: Non-Toxic
- Activity [18]: Active
- Activity [19]: Active
- Activity [20]: Active
- CI [21]: 0.43
- Activity [22]: 36.1%
- Activity [23]: Non-Toxic
- Activity [24]: Active
- CI [25]: 0.48
- Activity [26]: Active
- Activity [27]: Non-Toxic
- Activity [28]: Active
- Activity [29]: Non-Toxic
